{"source": "patent US12178205B2", "about": "“Systems and methods for storing and preserving implantable devices” (Rutgers, The State University of New Jersey, priority 2016, dated 2024)", "test_system": "Staphylococcus aureus (ATCC 6538)", "assay": "Antimicrobial effectiveness of zinc chloride on Staphylococcus aureus suspension (exposure, neutralization, assay for survivors)", "assay_type": "cell-based", "details": "for CFU/mL of Survivors / Log10 Survivors: 37±1° C.; for Number of Survivors: duplicate plate counts; for Percent Reduction: vs test population control 4.68 × 10^5 CFU/mL; for Log10 Reduction: vs test population control Log10 5.67", "description": "(§1) A suspension of test organism Staphylococcus aureus (ATCC 6538) was obtained by adding colonies on tryptic soy agar and 5% Sheep Blood (BAP) with incubation parameters of 35° C.-37° C., aerobic in 0.85% saline to match a 3.0 McFarland standard. The suspension was exposed to a test substance of zinc chloride at specified concentrations of 0.1%, 0.3%, and 0.5% from a 1% stock solution at specified exposure times of 10 minutes, 2 hours, 6 hours, and 24 hours at a temperature of 37±1° C. (37.2° C.). Latheen broth and 1% sodium bicarbonate (9.9 mL) were used as a neutralizer. After exposure, an aliquot of the suspension was transferred to the neutralizer and was assayed for survivors.\nas §1", "key": {"[1]": {"details": "exposure 10 minutes, dilution (volume plated) 10^0 (0.100 mL)"}, "[2]": {"details": "exposure 10 minutes, dilution (volume plated) 10^0 (1.00 mL)"}}}
{"compound": "[Cl-].[Cl-].[Zn+2]", "note": "[0.3% Zinc Chloride, zinc chloride]", "values": [{"measurement": "CFU/mL of Survivors", "setting": "exposure 10 minutes", "value": "5.9 × 10^4 CFU/mL"}, {"measurement": "Log10 Survivors", "setting": "exposure 10 minutes", "value": 4.77}, {"measurement": "Number of Survivors", "setting": "[1]", "value": "T, T"}, {"measurement": "Number of Survivors", "setting": "[2]", "value": "T, T"}, {"measurement": "Percent Reduction", "setting": "exposure 10 minutes", "value": 87.4, "unit": "%"}, {"measurement": "Log10 Reduction", "setting": "exposure 10 minutes", "value": 0.90}, {"measurement": "CFU/mL of Survivors", "setting": "exposure 2 hours", "value": "1 × 10^1 CFU/mL"}, {"measurement": "Log10 Survivors", "setting": "exposure 2 hours", "value": 1.00}, {"measurement": "Percent Reduction", "setting": "exposure 2 hours", "value": ">99.99", "unit": "%"}, {"measurement": "Log10 Reduction", "setting": "exposure 2 hours", "value": 4.67}, {"measurement": "CFU/mL of Survivors", "setting": "exposure 6 hours", "value": "<5", "unit": "CFU/mL"}, {"measurement": "Log10 Survivors", "setting": "exposure 6 hours", "value": "<0.70"}, {"measurement": "Percent Reduction", "setting": "exposure 6 hours", "value": ">99.99", "unit": "%"}, {"measurement": "Log10 Reduction", "setting": "exposure 6 hours", "value": ">4.97"}, {"measurement": "CFU/mL of Survivors", "setting": "exposure 24 hours", "value": "<5", "unit": "CFU/mL"}, {"measurement": "Log10 Survivors", "setting": "exposure 24 hours", "value": "<0.70"}, {"measurement": "Percent Reduction", "setting": "exposure 24 hours", "value": ">99.99", "unit": "%"}, {"measurement": "Log10 Reduction", "setting": "exposure 24 hours", "value": ">4.97"}]}
{"compound": "[Cl-].[Cl-].[Zn+2]", "note": "[0.1% Zinc Chloride, zinc chloride]", "values": [{"measurement": "CFU/mL of Survivors", "setting": "exposure 10 minutes", "value": "6.8 × 10^5 CFU/mL"}, {"measurement": "Log10 Survivors", "setting": "exposure 10 minutes", "value": 5.83}, {"measurement": "Number of Survivors", "setting": "[1]", "value": "T, T"}, {"measurement": "Number of Survivors", "setting": "[2]", "value": "T, T"}, {"measurement": "Number of Survivors", "setting": "exposure 10 minutes, dilution (volume plated) 10^1 (0.100 mL)", "value": "T, T"}, {"measurement": "Percent Reduction", "setting": "exposure 10 minutes", "value": "None"}, {"measurement": "Log10 Reduction", "setting": "exposure 10 minutes", "value": "None"}, {"measurement": "CFU/mL of Survivors", "setting": "exposure 2 hours", "value": "4.9 × 10^2 CFU/mL"}, {"measurement": "Log10 Survivors", "setting": "exposure 2 hours", "value": 2.69}, {"measurement": "Percent Reduction", "setting": "exposure 2 hours", "value": ">99.8", "unit": "%"}, {"measurement": "Log10 Reduction", "setting": "exposure 2 hours", "value": 2.98}, {"measurement": "CFU/mL of Survivors", "setting": "exposure 6 hours", "value": "2.3 × 10^2 CFU/mL"}, {"measurement": "Log10 Survivors", "setting": "exposure 6 hours", "value": 2.36}, {"measurement": "Percent Reduction", "setting": "exposure 6 hours", "value": ">99.9", "unit": "%"}, {"measurement": "Log10 Reduction", "setting": "exposure 6 hours", "value": 3.31}, {"measurement": "CFU/mL of Survivors", "setting": "exposure 24 hours", "value": "4 × 10^1 CFU/mL"}, {"measurement": "Log10 Survivors", "setting": "exposure 24 hours", "value": 1.60}, {"measurement": "Percent Reduction", "setting": "exposure 24 hours", "value": 99.99, "unit": "%"}, {"measurement": "Log10 Reduction", "setting": "exposure 24 hours", "value": 4.07}]}
{"compound": "[Cl-].[Cl-].[Zn+2]", "note": "[0.5% Zinc Chloride, zinc chloride]", "values": [{"measurement": "CFU/mL of Survivors", "setting": "exposure 10 minutes", "value": "2.9 × 10^4 CFU/mL"}, {"measurement": "Log10 Survivors", "setting": "exposure 10 minutes", "value": 4.46}, {"measurement": "Number of Survivors", "setting": "[1]", "value": "T, T"}, {"measurement": "Number of Survivors", "setting": "[2]", "value": "T, T"}, {"measurement": "Percent Reduction", "setting": "exposure 10 minutes", "value": 93.8, "unit": "%"}, {"measurement": "Log10 Reduction", "setting": "exposure 10 minutes", "value": 1.21}, {"measurement": "CFU/mL of Survivors", "setting": "exposure 2 hours", "value": "1 × 10^1 CFU/mL"}, {"measurement": "Log10 Survivors", "setting": "exposure 2 hours", "value": 1.00}, {"measurement": "Percent Reduction", "setting": "exposure 2 hours", "value": ">99.99", "unit": "%"}, {"measurement": "Log10 Reduction", "setting": "exposure 2 hours", "value": 4.67}, {"measurement": "CFU/mL of Survivors", "setting": "exposure 6 hours", "value": "<5", "unit": "CFU/mL"}, {"measurement": "Log10 Survivors", "setting": "exposure 6 hours", "value": "<0.70"}, {"measurement": "Percent Reduction", "setting": "exposure 6 hours", "value": ">99.99", "unit": "%"}, {"measurement": "Log10 Reduction", "setting": "exposure 6 hours", "value": ">4.97"}, {"measurement": "CFU/mL of Survivors", "setting": "exposure 24 hours", "value": "<5", "unit": "CFU/mL"}, {"measurement": "Log10 Survivors", "setting": "exposure 24 hours", "value": "<0.70"}, {"measurement": "Percent Reduction", "setting": "exposure 24 hours", "value": ">99.99", "unit": "%"}, {"measurement": "Log10 Reduction", "setting": "exposure 24 hours", "value": ">4.97"}]}
